The record followed here is patent US20240092784A1, “CONDENSED HETEROCYCLIC COMPOUND” (NISSAN CHEMICAL CORPORATION, priority 2020, published 2024).

Counter-ions that a name gives are not always drawn.

Chain of human SPR (P35270 whole entry): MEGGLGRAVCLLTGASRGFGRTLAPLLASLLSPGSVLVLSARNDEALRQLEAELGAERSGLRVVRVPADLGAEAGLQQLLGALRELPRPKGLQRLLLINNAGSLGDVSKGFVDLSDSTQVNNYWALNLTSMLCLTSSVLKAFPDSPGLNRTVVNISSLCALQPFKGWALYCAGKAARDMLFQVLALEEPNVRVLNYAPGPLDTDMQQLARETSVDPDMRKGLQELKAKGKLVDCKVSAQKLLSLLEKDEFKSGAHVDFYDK

For the first test, the target named is human SPR (Homo sapiens (Human), UniProt P35270). The test can be described thus: Evaluation Example 2: Measurement of human SPR inhibitory activity (seven concentrations, sepiapterin absorbance at 420 nm). It is filed as biochemical. The note with it: Evaluation Example 2, seven concentrations 0.14 nM to 100 nM, 240 minutes at room temperature, read-out: IC50. In short, it runs like this:
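His-tagged full-length human SPR (1-261) was expressed in E. coli and the tag removed. Enzyme at 150 ng/mL in 100 mM Tris-HCl pH 7.5/0.01% BSA was mixed with compound (0.14–100 nM, seven points), 120 μM sepiapterin and 160 μM NADPH, both as added-solution concentrations. After 240 min at room temperature, remaining sepiapterin was read at 420 nm to give percent inhibition.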
For the molecule `Cc1nn2c(O)c(C(=O)NC3CC3)c(=O)n(CC(C)C)c2c1/C=C/C(=O)N1CCC[C@@H]1C(F)F` [Synthesis Example 632, (R,E)-N-Cyclopropyl-3-(3-(2-(difluoromethyl)pyrrolidin-1-yl)-3-oxoprop-1-en-1-yl)-7-hydroxy-4-isobutyl-2-methyl-5-oxo-4,5-dihydropyrazolo[1,5-a]pyrimidine-6-carboxamide], the IC50 was determined as 1.51 nM. Still for that read-out and setting: under `CC(C)(C)Cn1c(=O)c(C(=O)NC2CC2)c(O)n2nc(-c3ccccn3)cc12` [Synthesis Example 299, N-Cyclopropyl-7-hydroxy-4-neopentyl-5-oxo-2-(pyridin-2-yl)-4,5-dihydropyrazolo[1,5-a]pyrimidine-6-carboxamide] stands 6.43 nM; under `CC(C)Cn1c(=O)c(C(=O)NC2CC2)c(O)n2nc(C(N)=O)c(/C=C/C3CCOCC3)c12` [compound 451, (E)-N6-Cyclopropyl-7-hydroxy-4-isobutyl-5-oxo-3-(2-(tetrahydro-2H-pyran-4-yl)vinyl)-4,5-dihydropyrazolo[1,5-a]pyrimidine-2,6-dicarboxamide], 0.69 nM; under `C[C@H](Nc1cc2n(CC(C)(C)C)c(=O)c(C(=O)NC3CC3)c(O)n2n1)c1ccccn1` [Synthesis Example 326, (S)-N-Cyclopropyl-7-hydroxy-4-neopentyl-5-oxo-2-((1-(pyridin-2-yl)ethyl)amino)-4,5-dihydropyrazolo[1,5-a]pyrimidine-6-carboxamide], 1.96 nM. Same read-out and setting: the result for `Cc1cncnc1Nc1cc2n(CC(C)(C)C)c(=O)c(C(=O)NC3CC3)c(O)n2n1` [Synthesis Example 340, N-Cyclopropyl-7-hydroxy-2-((5-methylpyrimidin-4-yl)amino)-4-neopentyl-5-oxo-4,5-dihydropyrazolo[1,5-a]pyrimidine-6-carboxamide] reads 1.92 nM. Same read-out and setting: the result for `CC(C)Cn1c(=O)c(C(=O)NC2CC2)c(O)n2ncc(/C=C/C3CCNCC3)c12` [Synthesis Example 241, (E)-N-Cyclopropyl-7-hydroxy-4-isobutyl-5-oxo-3-(2-(piperidin-4-yl)vinyl)-4,5-dihydropyrazolo[1,5-a]pyrimidine-6-carboxamide hydrochloride] reads 1.98 nM.

As for `CC(C)Cn1c(=O)c(C(=O)NC2CC2)c(O)n2ncc(/C=C/C(=O)N(C)Cc3ccn(C)n3)c12` [compound 604, (E)-N-Cyclopropyl-7-hydroxy-4-isobutyl-3-(3-(methyl((1-methyl-1H-pyrazol-3-yl)methyl)amino)-3-oxoprop-1-en-1-yl)-5-oxo-4,5-dihydropyrazolo[1,5-a]pyrimidine-6-carboxamide], the IC50 came to 0.92 nM. Take `CNc1nn2c(O)c(C(=O)NC3CC3)c(=O)n(CC3(C)CCOCC3)c2c1/C=C/C1CCOCC1` [compound 585, (E)-N-Cyclopropyl-7-hydroxy-2-(methylamino)-4-((4-methyltetrahydro-2H-pyran-4-yl)methyl)-5-oxo-3-(2-(tetrahydro-2H-pyran-4-yl)vinyl)-4,5-dihydropyrazolo[1,5-a]pyrimidine-6-carboxamide]: the IC50 was 1.23 nM. For `COC[C@@H]1CCN(C(=O)/C=C/c2c(C)nn3c(O)c(C(=O)NC4CC4)c(=O)n(CC(C)C)c23)C1` [Synthesis Example 621, (R,E)-N-Cyclopropyl-7-hydroxy-4-isobutyl-3-(3-(3-(methoxymethyl)pyrrolidin-1-yl)-3-oxoprop-1-en-1-yl)-2-methyl-5-oxo-4,5-dihydropyrazolo[1,5-a]pyrimidine-6-carboxamide], the IC50 was determined as 1.42 nM.

For `CC(C)(C)Cn1c(=O)c(C(=O)NC2CC2)c(O)n2nc3c(c12)CN(CC1CCOCC1)C(=O)N3` [Synthesis Example 409, N-Cyclopropyl-8-hydroxy-5-neopentyl-2,6-dioxo-3-((tetrahydro-2H-pyran-4-yl)methyl)-1,2,3,4,5,6-hexahydropyrazolo[1,5-a:3,4-d′]dipyrimidine-7-carboxamide], the IC50 was found to be 0.75 nM. On the same count and under the same terms, the result for `Cc1nn2c(O)c(C(=O)NC3CC3)c(=O)n(CC(C)C)c2c1/C=C/C(=O)N1CCC[C@H]1C` [compound 581, (R,E)-N-Cyclopropyl-7-hydroxy-4-isobutyl-2-methyl-3-(3-(2-methylpyrrolidin-1-yl)-3-oxoprop-1-en-1-yl)-5-oxo-4,5-dihydropyrazolo[1,5-a]pyrimidine-6-carboxamide] reads 1.09 nM; that for `CC(C)(C)Cn1c(=O)c(C(=O)NC2CC2)c(O)n2nc(N3CC[C@@H](N)C3)cc12` [Synthesis Example 341, (R)-2-(3-Aminopyrrolidin-1-yl)-N-cyclopropyl-7-hydroxy-4-neopentyl-5-oxo-4,5-dihydropyrazolo[1,5-a]pyrimidine-6-carboxamide], 2.6 nM; that for `CC(C)Cn1c(=O)c(C(=O)NC2CC2)c(O)n2ncc(/C=C/C(=O)N3CCC(F)(F)C3)c12` [compound 453, (E)-N-Cyclopropyl-3-(3-(3,3-difluoropyrrolidin-1-yl)-3-oxoprop-1-en-1-yl)-7-hydroxy-4-isobutyl-5-oxo-4,5-dihydropyrazolo[1,5-a]pyrimidine-6-carboxamide], 0.82 nM. Same read-out and setting: the result for `Cc1nn2c(O)c(C(=O)NC3CC3)c(=O)n(CC(C)C)c2c1/C=C/C(=O)N1CCOCC1` [compound 563, (E)-N-Cyclopropyl-7-hydroxy-4-isobutyl-2-methyl-3-(3-morpholino-3-oxoprop-1-en-1-yl)-5-oxo-4,5-dihydropyrazolo[1,5-a]pyrimidine-6-carboxamide] reads 0.7 nM. As to `CC(C)Cn1c(=O)c(C(=O)NC2CC2)c(O)n2ncc(COc3ccccc3)c12` [Synthesis Example 260, N-Cyclopropyl-7-hydroxy-4-isobutyl-5-oxo-3-(phenoxymethyl)-4,5-dihydropyrazolo[1,5-a]pyrimidine-6-carboxamide], the IC50 stood at 1.27 nM. The same measure, in the same setting: under `CC(C)(C)Cn1c(=O)c(C(=O)NC2CC2)c(O)n2nc3c(c12)CCOC(=O)N3` [Synthesis Example 401, N-Cyclopropyl-9-hydroxy-6-neopentyl-2,7-dioxo-1,2,4,5,6,7-hexahydropyrimido[1′,2′:1,5]pyrazolo[3,4-d][1,3]oxazepine-8-carboxamide] stands 0.56 nM.

For the molecule `CN(C)/C=N/c1cc2n(CC(C)(C)C)c(=O)c(C(=O)NC3CC3)c(O)n2n1` [Synthesis Example 362, (E)-N-Cyclopropyl-2-(((dimethylamino)methylene)amino)-7-hydroxy-4-neopentyl-5-oxo-4,5-dihydropyrazolo[1,5-a]pyrimidine-6-carboxamide hydrochloride], the IC50 amounted to 1.48 nM. For `CC(C)Cn1c(=O)c(C(=O)NC2CC2)c(O)n2ncc(/C=C/C(=O)N3CC(F)(F)C3)c12` [compound 555, (E)-N-Cyclopropyl-3-(3-(3,3-difluoroazetidin-1-yl)-3-oxoprop-1-en-1-yl)-7-hydroxy-4-isobutyl-5-oxo-4,5-dihydropyrazolo[1,5-a]pyrimidine-6-carboxamide], the IC50 stood at 0.82 nM.

`CC(C)(C)Cn1c(=O)c(C(=O)NC2CC2)c(O)n2nc(-c3n[nH]cc3C#N)cc12` [Synthesis Example 292, 2-(4-Cyano-1H-pyrazol-3-yl)-N-cyclopropyl-7-hydroxy-4-neopentyl-5-oxo-4,5-dihydropyrazolo[1,5-a]pyrimidine-6-carboxamide]: the IC50 is 1.32 nM. As to `Cc1nn2c(O)c(C(=O)NC3CC3)c(=O)n(CC(C)(C)C)c2c1/C=C/C(=O)N1[C@@H](C)COC[C@@H]1C` [Synthesis Example 624, N-Cyclopropyl-3-((E)-3-((3S,5S)-3,5-dimethylmorpholino)-3-oxoprop-1-en-1-yl)-7-hydroxy-2-methyl-4-neopentyl-5-oxo-4,5-dihydropyrazolo[1,5-a]pyrimidine-6-carboxamide], the IC50 stood at 0.98 nM.

Staying with this test, now noted: sepiapterin absorbance, Table 41, read-out: concentration at 50% inhibition of human SPR (IC50).
Regarding `CC(C)Cn1c(=O)c(C(=O)NC2CC2)c(O)n2ncc(/C=C/C(=O)N3CCN(CC4CC(F)(F)C4)CC3)c12` [Synthesis Example 714, (E)-N-Cyclopropyl-3-(3-(4-((3,3-difluorocyclobutyl)methyl)piperazin-1-yl)-3-oxoprop-1-en-1-yl)-7-hydroxy-4-isobutyl-5-oxo-4,5-dihydropyrazolo[1,5-a]pyrimidine-6-carboxamide], the IC50 was 2.54 nM. Regarding `Cc1nn2c(O)c(C(=O)NC3CC3)c(=O)n(CC(C)(C)C)c2c1/C=C/C(=O)N(C)CC#N` [Synthesis Example 690, (E)-3-(3-((Cyanomethyl)(methyl)amino)-3-oxoprop-1-en-1-yl)-N-cyclopropyl-7-hydroxy-2-methyl-4-neopentyl-5-oxo-4,5-dihydropyrazolo[1,5-a]pyrimidine-6-carboxamide], the IC50 was 1.46 nM. Regarding `Cc1nn2c(O)c(C(=O)NC3CC3)c(=O)n(CC(C)C)c2c1/C=C/C(=O)N1C[C@H]2C[C@@H]1CO2` [Synthesis Example 754, 3-((E)-3-((1R,4R)-2-Oxa-5-azabicyclo[2.2.1]heptan-5-yl)-3-oxoprop-1-en-1-yl)-N-cyclopropyl-7-hydroxy-4-isobutyl-2-methyl-5-oxo-4,5-dihydropyrazolo[1,5-a]pyrimidine-6-carboxamide], the IC50 turned out to be 0.83 nM.

`COC[C@H]1COCCN1C(=O)/C=C/c1c(C)nn2c(O)c(C(=O)NC3CC3)c(=O)n(CC(C)(C)C)c12` [Synthesis Example 694, (S,E)-N-Cyclopropyl-7-hydroxy-3-(3-(3-(methoxymethyl)morpholino)-3-oxoprop-1-en-1-yl)-2-methyl-4-neopentyl-5-oxo-4,5-dihydropyrazolo[1,5-a]pyrimidine-6-carboxamide]: the IC50 is 0.85 nM. The same measure, in the same setting: under `CC(C)Cn1c(=O)c(C(=O)NC2CC2)c(O)n2ncc(/C=C/C(=O)N3C[C@@H](C)OC[C@@H]3C)c12` [Synthesis Example 741, N-Cyclopropyl-3-((E)-3-((2R,5S)-2,5-dimethylmorpholino)-3-oxoprop-1-en-1-yl)-7-hydroxy-4-isobutyl-5-oxo-4,5-dihydropyrazolo[1,5-a]pyrimidine-6-carboxamide] stands 0.98 nM.
